Biological target: T1, aldose reductase (Bos taurus, UniProt P16116)
T1 construct: partially purified aldose reductase is isolated in known manner from bovine lenses; from tissue; host or cells: bovine lenses
Assay: in vitro inhibition of partially purified aldose reductase isolated from bovine lenses (reduction of glucose to sorbitol, spectrophotometric)
Assay type: biochemical
Details: in vitro test
Excerpt: Thus, in a standard procedure partially purified aldose reductase is isolated in known manner from bovine lenses. The percentage inhibition of this enzyme's ability in vitro to catalyse the reduction of aldoses to polyhydric alcohols, and particularly to reduce glucose to sorbitol, caused by a test compound can then be determined using standard spectrophotometric methods.

## Cc1c(C)c(S(=O)(=O)C[N+](=O)[O-])c(C)c2c1OC(C)(C)CC2 [Example 2, 2,2,5,7,8-pentamethyl-6-(nitromethylsulphonyl)-chroman]
  IC50: 13 nM

— US5185452A, “Benzheterocyclyl sulphones” (Imperial Chemical Industries PLC, priority 1989, dated 1993)
